Measured values taken from article PMC9218946, “Identification of a Subtype-Selective Allosteric Inhibitor of GluN1/GluN3 NMDA Receptors” (Frontiers in Pharmacology, 2022).

Assays:
GluN2-containing NMDARs = assay: Whole-cell patch-clamp, NMDA-induced native currents in acutely isolated hippocampal neurons; assay type: cell-based, rat; details: 10 μM WZB117
Experimental: (§1) Hippocampal neurons were obtained from Sprague-Dawley rats (aged P7-14). Briefly, the isolated hippocampal tissues were cut into approximately […] slices along the sagittal plane and were digested with 3 mg/ml proteinase (Sigma-Aldrich) at 32°C for 8 min. Then 1 mg/ml bovine serum albumin (Sangon Biotech) and 1 mg/ml trypsin inhibitor (Sigma-Aldrich) were used to stop the digestion. A few slices of the hippocampus were gently blown into single cells with the dissecting solution, then transferred to a dish and left to rest for 20 min before experiments. The dishes were preprocessed. Essentially, the bottom of the dish was covered with discarded cell suspension the day before the experiment and was washed and dried the next day, which prevented the neurons from sticking to the bottom too tightly. The dissecting solution contained (in mM): 82 Na2SO4, 30 K2SO4, 5 MgCl2, 1 Na pyruvate, 10 HEPES, and 20 glucose. The pH was adjusted to 7.2 using NaOH ([Xie et al., 2020]).
(§2) Whole-cell patch-clamp recordings were performed at room temperature (22–25°C) using an EPC-10 amplifier and Patch Master Software (HEKA). Pipettes were pulled from borosilicate glass capillaries (World Precision Instruments), and the resistances were 3–5 MΩ when filled with the intracellular solution. […]

AMPA receptors = assay: Whole-cell patch-clamp, AMPA-induced currents in acutely isolated hippocampal neurons; assay type: cell-based, rat; details: 10 μM WZB117
Experimental: as §1, §2

[1] = biological target: T1, chimera GluN3A^670-673 MWPL/LEPF (UniProt Q05586+Q9R1M7, L673F/M670L/W671E); assay: Whole-cell patch-clamp on transiently transfected CHO cells, GluN3A chimera; assay type: cell-based
T1 construct: expressed in transfected cells; host or cells: CHO, transient
T1 sequence (Q9R1M7 24-1135 M670L/W671E/L673F, other chains not shown): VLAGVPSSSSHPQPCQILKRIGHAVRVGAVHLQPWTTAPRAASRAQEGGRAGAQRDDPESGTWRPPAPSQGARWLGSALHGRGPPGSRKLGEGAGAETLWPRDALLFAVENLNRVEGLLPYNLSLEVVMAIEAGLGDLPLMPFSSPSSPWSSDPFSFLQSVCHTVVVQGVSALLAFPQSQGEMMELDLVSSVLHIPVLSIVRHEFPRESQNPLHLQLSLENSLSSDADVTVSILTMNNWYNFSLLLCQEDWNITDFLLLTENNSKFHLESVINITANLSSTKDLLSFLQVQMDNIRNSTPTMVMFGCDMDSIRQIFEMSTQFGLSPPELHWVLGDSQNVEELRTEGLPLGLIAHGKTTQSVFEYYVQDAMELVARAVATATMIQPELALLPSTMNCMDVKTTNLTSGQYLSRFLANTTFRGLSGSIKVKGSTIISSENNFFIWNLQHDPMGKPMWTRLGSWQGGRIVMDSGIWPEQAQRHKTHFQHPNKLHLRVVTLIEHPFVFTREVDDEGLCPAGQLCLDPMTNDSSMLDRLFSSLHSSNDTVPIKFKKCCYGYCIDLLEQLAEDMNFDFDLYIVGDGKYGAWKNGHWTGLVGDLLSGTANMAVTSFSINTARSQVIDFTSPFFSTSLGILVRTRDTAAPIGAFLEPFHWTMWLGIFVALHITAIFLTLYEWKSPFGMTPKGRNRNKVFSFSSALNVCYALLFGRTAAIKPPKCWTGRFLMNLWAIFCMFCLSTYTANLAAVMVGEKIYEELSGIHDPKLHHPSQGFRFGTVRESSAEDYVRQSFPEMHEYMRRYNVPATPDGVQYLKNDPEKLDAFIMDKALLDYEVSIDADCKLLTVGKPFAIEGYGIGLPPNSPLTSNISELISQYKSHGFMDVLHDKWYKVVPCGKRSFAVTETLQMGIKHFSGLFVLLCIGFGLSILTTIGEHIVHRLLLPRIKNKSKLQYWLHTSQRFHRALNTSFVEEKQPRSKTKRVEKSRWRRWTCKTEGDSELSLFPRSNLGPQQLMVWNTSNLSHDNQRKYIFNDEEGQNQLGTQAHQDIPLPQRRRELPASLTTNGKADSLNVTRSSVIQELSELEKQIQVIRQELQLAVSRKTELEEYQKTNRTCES
Experimental: (§3) To establish GluN1/GluN3A stable cell lines, the human GluN1-1a (GenBank: NP_015566.1) and the rat GluN3A (GenBank: NP_612555.1) genes were subcloned into the pcDNA5-FRT-To and pcDNA3.1 vectors, respectively. An EGFP tag was added to the C-terminus of GluN1 or GluN3A using a T2A linker for identification of transfected cells during transient transfection. Point mutations were introduced by site-directed mutagenesis using PrimeSTAR (Takara). The human GluN2A (GenBank: NP_000824.1) gene was subcloned into the pcDNA3.1 vector. The chimeras GluN3A^670-673 MWPL/LEPF and GluN2A^550-553 LEPF/MWPL were generated using In-Fusion HD Cloning kits (Takara). All constructs were confirmed by DNA sequencing (Beijing Genomics Institute).
(§4) The Flp-in T-Rex 293 cell lines (Invitrogen), stably expressing GluN1/GluN3A were grown in DMEM basal medium (Gibco) supplemented with 10% fetal bovine serum (FBS, Invitrogen), 15 μg/ml blasticidin S (Invitrogen), 50 μg/ml hygromycin B (Invitrogen) and 500 μg/ml G418 (Gibco). Expression in cell lines was induced with 1 μg/ml doxycycline (Invitrogen) 24–28 h prior to the experiments. Chinese hamster ovary (CHO) cells were grown in DMEM-F12 basal medium (Gibco) supplemented with 10% FBS. In the study on the action sites of WZB117, all whole-cell patch-clamp recordings were performed on CHO cells. […]

[2] = biological target: T2, chimera GluN1/GluN2A^550-553 LEPF/MWPL (Homo sapiens, UniProt Q05586+Q12879, E551W/F553L/L550M); assay: Whole-cell patch-clamp on transiently transfected CHO cells, GluN2A chimera; assay type: cell-based
T2 construct: expressed in transfected cells; host or cells: CHO, transient
T2 sequence (Q12879 23-1464 L550M/E551W/F553L, other chains not shown): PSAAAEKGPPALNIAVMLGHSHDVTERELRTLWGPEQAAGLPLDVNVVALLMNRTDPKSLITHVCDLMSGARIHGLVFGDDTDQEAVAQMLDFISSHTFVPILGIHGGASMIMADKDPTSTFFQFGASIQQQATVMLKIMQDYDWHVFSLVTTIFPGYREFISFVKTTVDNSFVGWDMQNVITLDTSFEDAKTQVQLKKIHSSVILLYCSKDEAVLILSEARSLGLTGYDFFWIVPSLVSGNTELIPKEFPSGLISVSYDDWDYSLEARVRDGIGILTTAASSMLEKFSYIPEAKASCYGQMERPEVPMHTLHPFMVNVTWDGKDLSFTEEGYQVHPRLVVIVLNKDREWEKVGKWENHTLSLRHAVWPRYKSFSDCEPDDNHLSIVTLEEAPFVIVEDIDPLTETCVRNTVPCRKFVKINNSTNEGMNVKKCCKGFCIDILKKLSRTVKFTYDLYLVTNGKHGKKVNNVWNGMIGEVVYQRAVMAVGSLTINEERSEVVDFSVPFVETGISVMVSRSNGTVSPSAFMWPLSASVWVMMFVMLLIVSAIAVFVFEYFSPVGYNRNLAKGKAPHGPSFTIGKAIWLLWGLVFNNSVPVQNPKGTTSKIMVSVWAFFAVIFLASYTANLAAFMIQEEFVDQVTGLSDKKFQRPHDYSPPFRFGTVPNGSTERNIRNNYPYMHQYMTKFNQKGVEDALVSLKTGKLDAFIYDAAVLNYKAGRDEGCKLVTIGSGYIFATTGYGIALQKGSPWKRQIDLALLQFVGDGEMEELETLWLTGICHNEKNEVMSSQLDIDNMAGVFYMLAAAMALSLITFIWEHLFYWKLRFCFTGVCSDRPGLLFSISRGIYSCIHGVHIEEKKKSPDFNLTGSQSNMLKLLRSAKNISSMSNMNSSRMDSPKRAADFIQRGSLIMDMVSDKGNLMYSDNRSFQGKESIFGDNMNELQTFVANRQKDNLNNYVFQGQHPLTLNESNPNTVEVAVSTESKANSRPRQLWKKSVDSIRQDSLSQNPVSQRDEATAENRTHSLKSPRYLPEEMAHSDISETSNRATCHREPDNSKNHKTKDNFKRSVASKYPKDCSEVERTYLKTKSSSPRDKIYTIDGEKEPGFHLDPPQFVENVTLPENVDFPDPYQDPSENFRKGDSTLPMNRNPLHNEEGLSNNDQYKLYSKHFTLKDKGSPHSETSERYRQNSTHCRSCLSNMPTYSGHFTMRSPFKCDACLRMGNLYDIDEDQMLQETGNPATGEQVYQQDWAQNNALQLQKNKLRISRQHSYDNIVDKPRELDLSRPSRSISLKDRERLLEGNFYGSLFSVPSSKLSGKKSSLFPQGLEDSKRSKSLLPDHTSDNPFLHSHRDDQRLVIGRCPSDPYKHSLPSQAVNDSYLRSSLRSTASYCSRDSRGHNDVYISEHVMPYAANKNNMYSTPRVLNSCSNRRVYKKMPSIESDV
Experimental: as §3, §4

GluN1/GluN3A receptors = GluN1/GluN3A receptors (UniProt Q05586+Q9R1M7); assay: Whole-cell patch-clamp recording on GluN1/GluN3A Flp-in T-REx 293 stable cell lines; assay type: cell-based, human GluN1-1a, rat GluN3A; design: expressed in transfected cells
Sequence of GluN1/GluN3A receptors (Q9R1M7 24-1135, other chains not shown): as the sequence (Q9R1M7 24-1135 M670L/W671E/L673F, other chains not shown) above, with L647M, E648W, F650L counted along it

inhibition on chimera [1]: greatly reduced
sensitivity of chimera [2]: acquired higher sensitivity
voltage-dependence of inhibition activity (GluN1/GluN3A receptors; 3 μM WZB117, +40 mV and −60 mV): no significant change
IC50 (GluN1/GluN3A receptors; pH 6.9): 1270 ± 390 nM
IC50 (GluN1/GluN3A receptors; pH 8.3): 1090 ± 220 nM
Compound: O=C(Oc1cccc(F)c1OC(=O)c1cccc(O)c1)c1cccc(O)c1 [WZB117, 3-fluoro-1,2-phenylene bis(3-hydroxybenzoate)]
I drug/I control (GluN2-containing NMDARs): 0.73 ± 0.01
effect on AMPA-induced currents (AMPA receptors): almost ineffective
